Results published in patent publication US12703686B2, “4-Methoxy-2-phenethyl isoindoline-1-one derivative and composition for treating neurological diseases, comprising same” (CNG BIO CO., LTD., priority 2020, dated 2026).

Assays:
BV2 cells (microglia) = assay: NO production in LPS-stimulated BV2 cells (Griess reaction), antineuritic activity; assay type: cell-based; settings: 10 NM, 100 ng/ml LPS for 24 hours, FIG. 13
Experimental: In order to confirm the change in NO production and the effect on cell viability when BV2 cells were treated with the compounds of the present invention, the following experiments were performed. L-NMMA (NG-monomethyl-L-arginine), an NO synthesis inhibitor, was used as a positive control group.
Analysis of NO production for evaluation of antineuritic activity BV2 cells (microglia) were dispensed in DMEM culture solution at a concentration of 6×10^4 cells/well in a 96 well plate, and then treated with the compounds of Formulas 6, 7, and 8 at a concentration of 10 NM, and incubated for 24 hours. After 24 hours, each sample was treated with a concentration of 10 NM, reacted for 1 hour, and then stimulated with 100 ng/ml of LPS for 24 hours. The production of nitrite, a soluble oxidation product of NO (nitric oxide), was measured in the culture medium through the Griess reaction.

C6 glioma cells = assay: Ability to promote increase of nerve growth factor (NGF) in C6 glioma cells, ELISA; assay type: cell-based, Rat; settings: 10 μM, 24 hours, FIG. 9
Experimental: In order to measure the amount of nerve growth factor (NGF) produced in the cell medium and to confirm the effect on cell viability when cells were treated with the compounds of the present invention, the following experiments were performed.
Rat astrocyte-derived C6 glioma cells were dispensed in DMEM culture solution at a concentration of 1×10^5 cells/well in a 24 well plate and stabilized overnight, and then treated with the compounds of Formulas 3, 6, 7, and 8 at a concentration of 10 μM, and reacted in a 37° C. incubator for 24 hours. The treated medium was collected and centrifuged, and then absorbance was measured using an enzyme linked immunoassay kit (ELISA kit).

SMILES	NO production (nitrite) compared to untreated control group (BV2 cells (microglia))	nerve growth factor produced in the cell medium (C6 glioma cells)
COc1cc(O)c(CCO)c2c1CN(CCc1ccccc1)C2=O [Formula 6, 6-hydroxy-7-(2-hydroxyethyl)-4-methoxy-2-phenethyl isoindolin-1-one]	reduced	
COc1cc(O)c(CCN(C)C)c2c1CN(CCc1ccccc1)C2=O [Formula 7, 7-(2-(dimethylamino)ethyl)-6-hydroxy-4-methoxy-2-phenethyl isoindolin-1-one]	reduced	significantly excellent
COc1cc(O)c(CCCO)c2c1CN(CCc1ccccc1)C2=O [Formula 8, 6-hydroxy-7-(3-hydroxypropyl)-4-methoxy-2-phenethyl isoindolin-1-one]	reduced	
C=CCc1c(O)cc(OC)c2c1C(=O)N(CCc1ccccc1)C2 [Formula 3, 7-allyl-6-hydroxy-4-methoxy-2-phenethyl isoindolin-1-one]		significantly excellent
